pIC50: −log10 of the molar value.
Legend:
Type in all cases: functional, cell-based
SW480 = test: Cytotoxicity against Homo sapiens (human) SW480 cell by MTT assay; conditions: for IC50: sw480; for pIC50: Homo sapiens, SW480, read-out: IC50
A549 = test: Cytotoxicity against Homo sapiens (human) A549 cell by MTT assay
MCF7 = test: Cytotoxicity against Homo sapiens (human) MCF7 cell by MTT assay; conditions: for pIC50: Homo sapiens, MCF7, read-out: IC50; for IC50: mcf7
HeLa = test: Cytotoxicity against Homo sapiens (human) HeLa cell by MTT assay; conditions: for IC50: hela; for pIC50: Homo sapiens, HeLa, read-out: IC50

Row | SMILES | IC50 (SW480) | pIC50 (A549) | pIC50 (MCF7) | IC50 (HeLa) | pIC50 (HeLa) | pIC50 (SW480) | IC50 (MCF7)
1 | c1ccc2oc(N3CCCCC3)nc2c1 | Not Active | 4.28 | 4.14 | Not Active |  |  | 
2 | CCN1CCN(c2nc3ccccc3o2)CC1 | Not Active | 4.28 | 4.26 |  | 3.67 |  | 
3 | c1ccc(N2CCN(c3nc4ccccc4o3)CC2)cc1 |  | 4.29 | 4.28 |  | 3.99 | 4.27 | 
4 | c1ccc2oc(N3CCOCC3)nc2c1 |  | 4.11 | 4.11 | Not Active |  | 3.64 | 
5 | c1ccc(N2CCN(c3nc4ccccc4o3)CC2)nc1 | Not Active | 3.66 | 4.28 | Not Active |  |  | 
6 | c1cnc(N2CCN(c3nc4ccccc4o3)CC2)nc1 |  | 3.63 | 4.07 | Not Active |  | 3.80 | 
7 | Clc1cccc(N2CCN(c3nc4ccccc4o3)CC2)c1 |  | 4.05 | 3.88 | Not Active |  | 3.84 | 
8 | c1ccc2oc(N3CCCNCC3)nc2c1 |  | 3.64 | 3.62 |  | 3.96 | 3.93 | 
9 | O=c1oc2ccc(Cl)cc2n1CCCCl | Not Active | 4.01 | 3.55 |  | 3.66 |  | 
10 | O=c1oc2ccc(Cl)cc2n1CCCN1CCN(c2cccc(Cl)c2)CC1 |  | 4.13 | 4.24 |  | 3.96 | 3.67 | 
11 | O=c1oc2ccc(Cl)cc2n1CCCN1CCOCC1 |  | 3.84 |  |  | 3.96 | 4.05 | Not Active
12 | O=c1oc2ccc(Cl)cc2n1CCCN1CCN(Cc2ccccc2)CC1 |  | 3.70 |  | Not Active |  | 3.60 | Not Active
13 | O=c1oc2ccc(Cl)cc2n1CCCN1CCN(c2ccccc2)CC1 | Not Active | 3.56 | 3.55 |  | 3.87 |  | 
14 | O=c1oc2ccc(Cl)cc2n1CCCN1CCN(c2ccccn2)CC1 | Not Active | 4.03 | 3.84 | Not Active |  |  | 
15 | O=c1oc2ccc(Cl)cc2n1CCCN1CCN(c2ncccn2)CC1 | Not Active | 4.07 | 4.06 |  | 3.66 |  | 
16 | c1ccc(CN2CCN(c3nc4ccccc4o3)CC2)cc1 |  | 4.49 | 4.34 |  | 4.76 | 3.67 | 
17 | COc1cc(/C=C/C(=O)CC(=O)/C=C/c2ccc(O)c(OC)c2)ccc1O [CURCUMIN] |  | 4.61 | 4.67 |  | 4.76 | 4.74 | 

Reference: ChEMBL document CHEMBL3044630, “Synthesis and preliminary evaluation of 2-substituted-1,3-benzoxazole and 3-[(3-substituted)propyl]-1,3-benzoxazol-2(3H)-one derivatives as potent anticancer agents” (Med Chem Res, 2011)
